20 compounds from PubChem BioAssay (NCI) can be followed below.

Common to all, as to test: growth of human tumour cells (NCI), 48 h
Experiment [1] relates to SNB-75 CNS.
The test system of experiment [2] is HL-60(TB) leukemia.
In experiment [3] the test system is RXF 393 renal.
For experiment [4], the system named is NCI-H23 lung.
Experiment [5] concerns SN12C renal.
Experiment [6] deals with CCRF-CEM leukemia.
For experiment [7], the system named is IGROV1 ovarian.
For experiment [8], the system named is COLO 205 colon.
Experiment [9] relates to UACC-62 melanoma.
Experiment [10] deals with RPMI-8226 leukemia.

Several values for one entry are separate records, joined by “and”; a condition that tells them apart may be missing. Equal entries are not always repeated.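 Protocol summary: plate cells (96-well), add compound at 5 concentrations, incubate 48 h, interpolate endpoints linearly. GI50 = concentration required for 50% inhibition of growth. The concentration for full growth arrest is given as TGI.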 Where a SMILES comes first, the peptide text is derived from it. [ ]: non-standard residue; d: D form. The star is where a group is joined. Bn2Val = CC(C)[C@@H](C(=O)*)N(Cc1ccccc1)Cc1ccccc1; NH(4-Cl-benzyl) = Clc1ccc(CN*)cc1; NMeV = CN[C@H](C(=O)O)C(C)C; dNMeA = CN[C@H](C)C(=O)O Where only a bound is given, the exact number is not on record here.

As to `CC1=C2C(=CO[C@H](C)[C@H]2C)C(=O)C(C(=O)O)=C1O`, the GI50 is 21.2 µM in experiment [1]; 25.3 µM in experiment [2]; 21.9 µM in experiment [3]; 24.1 µM in [4]; 9.07 µM in experiment [5]; 27.7 µM in experiment [6]. Also, the GI50 is 22.1 µM in [8] and 25.4 µM in [10]. Moreover, the TGI in experiment [1] is 111 µM and > 62.1 µM; in [2], 59 µM and 25.7 µM; in experiment [3], 35.8 µM and 48.4 µM; in [4], 71.4 µM and 58.4 µM; in experiment [5], 54.8 µM and 26.2 µM; in experiment [6], > 88.7 µM and 45.9 µM. The TGI in experiment [7] is 69.6 µM and 49.4 µM; in experiment [8], 77.3 µM and 45.8 µM; in experiment [9] it was 85.6 µM and 40.4 µM; in experiment [10] it was 63.3 µM and 58.3 µM.

As for `O=C(c1cccs1)N1CCN(C(=O)c2cccs2)C1=S`, the TGI came to 11.7 µM in experiment [1]; 5.2 µM in experiment [2]; 10.5 µM in [3]; 32.1 µM in experiment [4]; 10.1 µM in experiment [5]; 6.87 µM in experiment [6]. Moreover, the TGI in [7] is 19.6 µM; in [8] it was 22.4 µM; in experiment [9], 16.6 µM; in experiment [10] it was more than 19.7 µM.

Take `COC(=O)C1C(=O)N(C)C(=O)N2CCCC12` (stereo unspecified): the TGI in experiment [1], in experiment [2], in [3], in experiment [4], in experiment [6] and in experiment [7] was more than 100 µM throughout. Also, the TGI in experiment [8], in [9] and in experiment [10] was more than 100 µM each time.

Regarding `CCc1cc2c(c3c1CCCC3=O)CC1(Cc3ccc(C(=O)OC)cc3C1)C2` (stereo unspecified), the TGI in experiment [1] is more than 100 µM; in [2], 55.4 µM; in experiment [3], more than 100 µM; in experiment [4] it was more than 100 µM; in experiment [5], more than 100 µM; in experiment [6] it was 91.4 µM. Further, the TGI in experiment [7] was more than 100 µM; in experiment [8] it was more than 100 µM; in experiment [10], 91 µM.

For the compound `COc1cc(C2c3cc4c(cc3C3OC[C@@H]2C3CO)OCO4)cc(OC)c1OC` (stereo partly specified), the TGI in experiment [1] is more than 100 µM; in experiment [2] it was 18.7 µM; in experiment [3], more than 100 µM; in experiment [5], more than 100 µM; in experiment [6] it was more than 100 µM; in [7], more than 100 µM. In addition, the TGI in experiment [8] is 33.6 µM; in [10] it was more than 100 µM. Further, the GI50 in experiment [5] was 59.4 µM.

As for `CC(C)(C)n1c(=O)[nH]c(=O)n1C(C)(C)C`, the TGI in [1], in [2], in experiment [3], in experiment [4], in experiment [5] and in experiment [6] was more than 100 µM throughout. Moreover, the TGI in [7], in experiment [8] and in [9] was more than 100 µM throughout.

`Cc1ccc(S(=O)(=O)Nn2c(O)c(C#N)c(-c3ccc(Cl)cc3)c(C#N)c2=O)cc1`: the TGI in experiment [1], in experiment [2], in experiment [3], in experiment [5], in [6] and in [7] was more than 100 µM in each case. For the same compound, the TGI in experiment [8], in experiment [9] and in experiment [10] was more than 100 µM throughout.

As for `CC(C)(C)[Si](C)(C)OCc1cccc(OCCOc2cccc(CO[Si](C)(C)C(C)(C)C)c2[N+](=O)[O-])c1[N+](=O)[O-]`, the TGI in experiment [1], in experiment [2], in experiment [3], in experiment [4], in experiment [5] and in experiment [6] was more than 100 µM in each case. For the same compound, the TGI in [7], in experiment [8] and in experiment [9] was more than 100 µM throughout.

With `CC(C)[C@H](NC(=O)[C@H](C(C)C)N(Cc1ccccc1)Cc1ccccc1)C(=O)N(C)[C@H](C(=O)N1CCC[C@H]1C(=O)N(C)[C@H](C)C(=O)NCc1ccc(Cl)cc1)C(C)C` (Bn2Val-V[NMeV]P[dNMeA]-{NH(4-Cl-benzyl)}), the TGI stood at 29.6 µM in experiment [1]; 3.97 µM in experiment [2]; 6.27 µM in experiment [3]; 28.6 µM in experiment [4]; 6.35 µM in experiment [5]; 7.43 µM in [6]. For the same compound, the TGI in [7] was 8.3 µM; in experiment [9], 13.8 µM; in experiment [10], more than 100 µM.

On to `COc1cccc(N[C@@H]2c3cc4c(cc3C(c3cc(OC)c(O)c(OC)c3)[C@H]3C(=O)OCC32)OCO4)c1` (stereo partly specified), for which the TGI in experiment [2] turned out to be 0.487 µM; in [3] it was 7.12 µM; in experiment [4], 9.96 µM; in [6], 2.69 µM; in experiment [7], 33.8 µM; in experiment [8], 7.39 µM. Further, the TGI in experiment [9] was 2.83 µM; in [10] it was 2.08 µM.

Turning to `O=c1[nH]n(Cc2ccccc2)c2ccc([N+](=O)[O-])cc12`, the TGI in [2], in experiment [3], in experiment [4], in experiment [5], in experiment [6] and in experiment [7] was more than 100 µM each time. The TGI in [8], in experiment [9] and in experiment [10] was more than 100 µM in each case.

On to `O=c1oc(C(C(F)(F)F)C(F)(F)F)nc2ccccc12`, for which the TGI in experiment [2], in experiment [3], in [4], in [6], in experiment [7] and in [8] was more than 100 µM each time. Further, the TGI in experiment [10] was more than 100 µM.

For `COc1cc(C2C(Cl)C(=O)N2c2c(C)n(C)n(-c3ccccc3)c2=O)ccc1O` (stereo unspecified), the TGI in experiment [2] came to 64.1 µM; in experiment [3], 33.6 µM; in [4], 34.2 µM; in experiment [5] it was 37.9 µM; in experiment [6] it was 79.7 µM; in [7], 29.1 µM. Further, the TGI in [8] came out at 34.3 µM; in [9], 29.7 µM; in experiment [10] it was 50.1 µM.

With `COc1ccc(OC)c(SC(CC(=O)c2ccccc2)c2ccccc2)c1` (stereo unspecified), the TGI in experiment [1] is 33.6 µM; in experiment [2] it was more than 100 µM; in experiment [3], 31.1 µM; in [4], 33.3 µM; in experiment [5], 40.6 µM; in experiment [6], more than 100 µM. The TGI in experiment [7] came out at 23.1 µM; in experiment [8], 37.3 µM; in experiment [9], 30.7 µM.

For the compound `C/C(=N\Nc1nc2ccccc2n1C)c1cc2ccccc2cn1`, the TGI in experiment [1] is 11.8 µM; in experiment [2], 1.41 µM; in [3], 7.7 µM; in experiment [4], 7.4 µM; in experiment [5], 3.29 µM; in experiment [6] it was more than 54.3 µM. Moreover, the TGI stood at 0.423 µM in experiment [7], 0.94 µM in experiment [9] and 1.63 µM in experiment [10].

Regarding `CC(C)/C(Cl)=N\OC(NC(=O)P(=O)(c1ccccc1)c1ccccc1)(C(F)(F)F)C(F)(F)F`, the TGI in experiment [2] was 30.9 µM; in [3], 34 µM; in experiment [4], 23.8 µM; in [5] it was 26.6 µM; in [6], 22.5 µM; in experiment [7], 28.4 µM. The TGI in experiment [8] was determined as 26.5 µM; in experiment [9] it was 49 µM; in [10], 37.5 µM.

Turning to `CCOP(=O)(O)CN1CCNCCN(CP(=O)(O)OCC)CCNCC1`, the TGI in [1], in experiment [2], in experiment [3], in experiment [5], in experiment [6] and in experiment [7] was more than 100 µM throughout. Also, the TGI in experiment [8], in experiment [9] and in experiment [10] was more than 100 µM each time.

Turning to `CC(C)(C)OC(=O)NCC(CNC(=O)OC(C)(C)C)c1nc(C(N)=O)cs1`, the TGI in experiment [1], in [2], in [3], in [4], in [5] and in experiment [6] was more than 100 µM in each case. The TGI in experiment [7], in experiment [8] and in [9] was more than 100 µM each time.

`O=C(Cc1ccc(Cl)c(Cl)c1)NCC1(N2CCCCC2)CCCCC1`: the TGI in [2] is more than 100 µM; in [3], 53 µM; in experiment [4] it was more than 100 µM; in experiment [5], more than 100 µM; in [6], more than 100 µM; in [7], more than 100 µM. For the same compound, the values for the TGI in [9] and in [10] were 42 µM and more than 100 µM, respectively.

As to `NCC(O)CSCc1ccc(Cl)cc1` (stereo unspecified), the TGI in experiment [2], in [3], in experiment [4], in experiment [5], in experiment [6] and in experiment [7] was more than 100 µM in each case. Further, the TGI in [8], in [9] and in experiment [10] was more than 100 µM in each case.
